Measured values from patent US11952365B2, “Anti-viral compounds” (Aligos Therapeutics, Inc., priority 2020, dated 2024).
Where two headings read alike, the source gives them in different places.

Legend:
HRV3C = HRV3C (Human rhinovirus 14, UniProt P03303); assay: HRV3C protease assay (duplex, SAMDI-MS); type: biochemical, HRV
How it was run: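 Readout is SAMDI mass spectrometry: biotinylated substrates, products and internal standards were immobilized on neutravidin monolayers and product formation taken as the AUC ratio to internal standard. Reactions ran 30 min at ambient temperature after 30 min compound preincubation, in duplex with 3CLpro. IC50 values came from four-parameter curve fitting.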

[1] = system: SARS-CoV-2-GHB-03021/2020; assay: SARS-CoV-2 Infection Model in Huh7 Cells; type: cell-based; settings: Severe acute respiratory syndrome coronavirus 2, Huh-7, 96 h, SARS-CoV-2, day 4 p.i., MTS, class symbols
human cathepsin L = biological target: T1, human cathepsin L (Homo sapiens, UniProt P07711); assay: cathepsin L assay; type: biochemical; settings: 10 pM human cathepsin L, Z-FR-AMC 2 μM
T1 construct: purchased R&D Systems
How it was run: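 Reactions began by adding 2 μM (final) Z-FR-AMC substrate to 10 pM human cathepsin L that had been preincubated 30 min with inhibitor. Kinetic AMC fluorescence at 355/460 nm over 30 min at 2-min intervals; four-parameter fitting gave IC50 values.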

3CLpro = 3CLpro (Severe acute respiratory syndrome coronavirus 2, UniProt P0DTD1); assay: SARS-CoV-2 3CLpro protease assay (duplex, SAMDI-MS); type: biochemical; set-up: For the duplex assay, 3CLpro and HRV3C was added; settings: 3CLpro, 30 mins preincubation, class symbols; read-out: SARS-Cov-2 IC50
[2] = Cytotoxicity plates without OC43 virus (cell-titer-glo); type: cell-based, human; settings: human; HeLa cells without OC43 virus, class symbols
How it was run: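 Run as a virus-free counterpart of the OC43 cytopathic-effect assay. Attached HeLa cells received compound dilutions in EMEM with 2% FBS and were kept 6 days at 33 °C. Cell viability was then measured by CellTiter-Glo luminescence.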

[3] = system: SARS-CoV-2-GHB-03021/2020; assay: microbe, parasite or virus in culture; type: cell-based; settings: Severe acute respiratory syndrome coronavirus 2, Vero C1008, 96 h; read-out: VeroE6 + CP (EC50)
in vitro [4] = settings: African green monkey, VeroE6 + CP (CC50), Vero E6-eGFP cells with CP-100356, absence of virus, MTS
[5] = system: human beta-coronavirus OC43; assay: microbe, parasite or virus in culture; type: cell-based; settings: Betacoronavirus 1, OC43, HeLa, 144 h
in vitro [6] = settings: human
[7] = HRV3C, 30 mins preincubation, bound, read-out: HRV IC50
[8] = OC43 in HeLa cells, 6 days at 33° C., class symbols, read-out: EC50

O=C1NCC[C@H]1C[C@H](NC(=O)[C@@H]1[C@H]2CCC[C@H]2CN1C(=O)c1cc2c(C(F)(F)F)cccc2[nH]1)C(=O)CO [Compound 63, (1S,3aR,6aS)—N-[(2S)-4-hydroxy-3-oxo-1-[(3S)-2-oxopyrrolidin-3-yl]butan-2-yl]-2-[4-(trifluoromethyl)-1H-indole-2-carbonyl]-hexahydro-1H-cyclopenta[c]pyrrole-1-carboxamide]
IC50 (HRV3C; [7]): > 10 µM
EC50 [1]: < 1 µM
IC50 (human cathepsin L; class symbols): ≥ 10 µM
IC50 (3CLpro): 0.02 to 0.2 µM
CC50 at 6 days [2]: > 10 µM
EC50 [3]: < 1 µM
CC50 (in vitro [4]; class symbols): > 10 µM
EC50 [5, 8]: 0.1 to 1 µM
CC50 (in vitro [6]): > 10 µM

O=C1NCC[C@H]1C[C@H](NC(=O)[C@@H]1[C@H]2CCC[C@H]2CN1C(=O)c1cc2c(OC(F)(F)F)cccc2[nH]1)C(=O)CO [Compound 64, (1S,3aR,6aS)—N-[(2S)-4-hydroxy-3-oxo-1-[(3S)-2-oxopyrrolidin-3-yl]butan-2-yl]-2-[4-(trifluoromethoxy)-1H-indole-2-carbonyl]-hexahydro-1H-cyclopenta[c]pyrrole-1-carboxamide]
IC50 (HRV3C; [7]): > 10 µM
EC50 [1]: < 1 µM
IC50 (human cathepsin L; class symbols): ≥ 10 µM
IC50 (3CLpro): 0.02 to 0.2 µM
CC50 at 6 days [2]: > 10 µM
EC50 [3]: < 1 µM
CC50 (in vitro [4]; class symbols): > 10 µM
EC50 [5, 8]: < 0.1 µM
CC50 (in vitro [6]): > 10 µM

COc1ccc(F)c2[nH]c(C(=O)N3C[C@@H]4CCC[C@@H]4[C@H]3C(=O)N[C@@H](C[C@@H]3CCNC3=O)C(=O)CO)cc12 [Compound 65, (1S,3aR,6aS)-2-(7-fluoro-4-methoxy-1H-indole-2-carbonyl)-N-[(2S)-4-hydroxy-3-oxo-1-[(3S)-2-oxopyrrolidin-3-yl]butan-2-yl]-hexahydro-1H-cyclopenta[c]pyrrole-1-carboxamide]
IC50 (HRV3C; HRV3C, 30 mins preincubation, class symbols, read-out: HRV IC50): 0.2 to 2 µM
EC50 [1]: < 1 µM
IC50 (human cathepsin L; class symbols): ≥ 10 µM
IC50 (3CLpro): < 0.02 µM
CC50 at 6 days [2]: > 10 µM
EC50 [3]: < 1 µM
CC50 (in vitro [4]; class symbols): > 10 µM
EC50 [5, 8]: 0.1 to 1 µM
CC50 (in vitro [6]): > 100 µM

COc1cccc2[nH]c(C(=O)N3C[C@@H]4CCC[C@@H]4[C@H]3C(=O)N[C@@H](C[C@H]3CC(C)(C)NC3=O)C(=O)CO)cc12 [Compound 70_2]
IC50 (HRV3C; HRV3C, printed bound without unit, read-out: HRV IC50): > 10 µM
EC50 [1]: 10 to 100 µM
IC50 (human cathepsin L; class symbols): ≥ 10 µM
IC50 (3CLpro): 0.2 to 2 µM
CC50 at 6 days [2]: > 10 µM
EC50 [3]: 10 to 100 µM
CC50 (in vitro [4]; numeric bounds): > 50 µM
EC50 [5, 8]: 1 to 10 µM
CC50 (in vitro [6]): > 50 µM

COc1cccc2sc(C(=O)N3C[C@@H]4CCC[C@@H]4[C@H]3C(=O)N[C@@H](C[C@@H]3CCNC3=O)C(=O)CO)cc12 [Compound 72, (1S,3aR,6aS)—N-[(2S)-4-hydroxy-3-oxo-1-[(3S)-2-oxopyrrolidin-3-yl]butan-2-yl]-2-(4-methoxy-1-benzothiophene-2-carbonyl)-hexahydro-1H-cyclopenta[c]pyrrole-1-carboxamide]
IC50 (HRV3C; [7]): > 10 µM
EC50 [1]: 1 to 10 µM
IC50 (human cathepsin L; bound): > 3.3 µM
IC50 (3CLpro): 0.2 to 2 µM
CC50 at 6 days [2]: > 10 µM
EC50 [3]: 1 to 10 µM
CC50 (in vitro [4]; numeric bounds): > 100 µM
EC50 [5, 8]: 0.1 to 1 µM
CC50 (in vitro [6]): > 100 µM

O=C1NCC[C@H]1C[C@H](NC(=O)[C@@H]1[C@H]2CCC[C@H]2CN1C(=O)c1cc(-c2ccccc2)c[nH]1)C(=O)CO [Compound 79, (1S,3aR,6aS)—N—((S)-4-hydroxy-3-oxo-1-((S)-2-oxopyrrolidin-3-yl)butan-2-yl)-2-(4-phenyl-1H-pyrrole-2-carbonyl)octahydrocyclopenta[c]pyrrole-1-carboxamide]
IC50 (HRV3C; HRV IC50, HRV3C, 30 mins preincubation, class symbols): 2 to 20 µM
EC50 [1]: 1 to 10 µM
IC50 (human cathepsin L; class symbols): ≥ 10 µM
IC50 (3CLpro): 0.02 to 0.2 µM
CC50 at 6 days [2]: > 10 µM
EC50 [3]: 1 to 10 µM
CC50 (in vitro [4]; numeric bounds): > 50 µM
EC50 [5]: 0.1 to 1 µM
CC50 (in vitro [6]): > 50 µM
